The results in this text go back to patent publication US20250382303A1, “NOVEL COMPOUND AS NADPH OXIDASE 2 INHIBITOR AND PHARMACEUTICAL COMPOSITION CONTAINING SAME” (DONGGUK UNIVERSITY INDUSTRY-ACADEMIC COOPERATION FOUNDATION, priority 2022, published 2025).

Molecules are shown by their SMILES. Where only a bound is given, the exact number is not on record here.

One experiment addresses T1, NOX2 (Homo sapiens, UniProt P04839).
T1 construct: Used for the NOX2 activity assay was human leukemia 60 cells (HL-60), which are widely, universally used to assess NOX2 activity; endogenous in cells
T1 sequence (P04839 2-570 limits assumed): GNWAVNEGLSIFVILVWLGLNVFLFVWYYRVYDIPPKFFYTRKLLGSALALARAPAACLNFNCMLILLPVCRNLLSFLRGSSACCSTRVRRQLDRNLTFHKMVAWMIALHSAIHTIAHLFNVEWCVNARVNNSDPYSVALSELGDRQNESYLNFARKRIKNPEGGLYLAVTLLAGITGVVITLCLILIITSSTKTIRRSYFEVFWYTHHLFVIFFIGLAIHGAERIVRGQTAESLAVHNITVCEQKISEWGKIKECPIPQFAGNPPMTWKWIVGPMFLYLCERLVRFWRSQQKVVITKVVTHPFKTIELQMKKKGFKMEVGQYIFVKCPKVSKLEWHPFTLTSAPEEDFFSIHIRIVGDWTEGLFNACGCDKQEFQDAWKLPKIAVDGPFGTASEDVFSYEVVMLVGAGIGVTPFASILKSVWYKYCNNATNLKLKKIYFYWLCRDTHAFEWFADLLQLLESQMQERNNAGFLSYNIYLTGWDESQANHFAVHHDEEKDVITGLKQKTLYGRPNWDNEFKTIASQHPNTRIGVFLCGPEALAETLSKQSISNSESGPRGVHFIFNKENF
T1 sequence (P13498 2-195 partner limits assumed): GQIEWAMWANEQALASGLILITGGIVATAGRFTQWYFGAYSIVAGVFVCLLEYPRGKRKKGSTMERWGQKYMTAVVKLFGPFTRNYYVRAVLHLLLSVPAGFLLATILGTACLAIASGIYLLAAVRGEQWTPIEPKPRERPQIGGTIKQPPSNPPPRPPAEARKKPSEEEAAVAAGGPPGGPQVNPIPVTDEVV
As to the kind of experiment: NOX2 activity assay: PMA-induced ROS in ATRA-differentiated HL-60 cells (WST-1 or Amplex Red/HRP probe). Type of experiment: cell-based. The conditions noted are these: WST-1; comment on Table 1. As for the experimental part:
NOX activity was evaluated by measuring the reactive oxygen species (ROS) produced by NOX. The probes that were used to measure ROS were water soluble tetrazolium-1 (WST-1, superoxide-specific colorimetric probe) and Amplex Red/horseradish peroxidase (AR/HRP, hydrogen peroxide-specific fluorometric probe), and the concentration of the probes used was […]. For WST-1, the change in the absorbance at 450 nm was measured, and, for AR, the change in fluorescence signals was measured at 560 nm and 585 nm, respectively for excitation wavelength (Ex) and emission wavelength (Em). The optical signal was measured using the SpectraMax M3 microplate reader from Molecular Devices at 37° C. for 60 minutes.
Used for the NOX2 activity assay was human leukemia 60 cells (HL-60), which are widely, universally used to assess NOX2 activity. 1×10^5 cells/mL of HL-60 were treated with […] all-trans-retinoic acid (ATRA) for 4 days to induce differentiation. Differentiated HL-60 (diff. HL-60) was centrifuged at 200 g for 5 minutes and washed twice with HBSS. Differentiation was induced to reach 3×10^4 cells/well on a 96-well plate (diff). HL-60 was seeded. The test material was treated to cells and left in a 37° C. incubator for 60 minutes. As a control group, the same concentration of DMSO, which is the vehicle of the test material, was used. 200 ng/mL phorbol 12-myristate 13-acetate (PMA) was used as the NOX2 activator, and the production amount of ROS induced by PMA was measured for 60 minutes. […] diphenyleneiodonium (DPI), which is well known to inhibit NOX, was used as a positive control group to evaluate whether the NOX2 activity tester properly operates.
For orientation: Formazan colour is commonly taken as a measure of viable cells.
Consider `CC12CC(NC(=O)N1c1cccc(C(=O)N3CCc4cc(F)ccc4C3)c1)c1cc(-c3ccoc3)ccc1O2` (centres unmarked) [Compound 28b, 3-(3-(6-Fluoro-1,2,3,4-tetrahydroisoquinoline-2-carbonyl)phenyl)-8-(furan-3-yl)-2-methyl-5,6-dihydro-2H-2,6-methanobenzo[g][1,3,5]oxadiazocin-4(3H)-one], for which the “NOX2 inhibitory ability, verbal rating” value was “excellent inhibitory ability”.
The same measure, in the same setting: next, `CC12CC(NC(=O)N1c1cccc(C(=O)N3CCc4ccccc4C3)c1)c1cc(-c3cccs3)ccc1O2` (centres unmarked) [Compound 26c, 2-Methyl-3-(3-(1,2,3,4-tetrahydroisoquinoline-2-carbonyl)phenyl)-8-(thiophen-2-yl)-5,6-dihydro-2H-2,6-methanobenzo[g][1,3,5]oxadiazocin-4(3H)-one]: “excellent inhibitory ability”; `COc1ccc2c(c1)C1CC(C)(O2)N(c2cccc(C(=O)N3CCc4ccccc4C3)c2)C(=O)N1` (centres unmarked) [Compound 25e, 8-Methoxy-2-methyl-3-(3-(1,2,3,4-tetrahydroisoquinoline-2-carbonyl)phenyl)-5,6-dihydro-2H-2,6-methanobenzo[g][1,3,5]oxadiazocin-4(3H)-one]: “excellent inhibitory ability”.
Still for that read-out and setting: for `CC12CC(NC(=O)N1c1cccc(C(=O)N3CCc4ccccc4C3(C)C)c1)c1cc(-c3ccoc3)ccc1O2` (centres unmarked) [Compound 28j, 3-(3-(1,1-Dimethyl-1,2,3,4-tetrahydroisoquinoline-2-carbonyl)phenyl)-8-(furan-3-yl)-2-methyl-5,6-dihydro-2H-2,6-methanobenzo[g][1,3,5]oxadiazocin-4(3H)-one] the value was “excellent inhibitory ability”.

The same experiment, now with this note: WST-1 probe; differentiated HL-60, 200 ng/mL PMA; read-out: Inhibitory ability (NOX2).
As to `CC12CC(NC(=O)N1c1cccc(C(=O)N3CCc4cccc(F)c4C3)c1)c1cc(Br)ccc1O2` (centres unmarked) [Compound 27c, 8-Bromo-3-(3-(8-fluoro-1,2,3,4-tetrahydroisoquinoline-2-carbonyl)phenyl)-2-methyl-5,6-dihydro-2H-2,6-methanobenzo[g][1,3,5]oxadiazocin-4(3H)-one], the IC50 is > 10 µM.
The same measure, in the same setting: for `CC12CC(NC(=O)N1c1cccc(C(=O)NC3Cc4ccccc4C3)c1)c1ccccc1O2` (racemic) [Compound 8e, N-(2,3-Dihydro-1H-inden-2-yl)-3-(2-methyl-4-oxo-5,6-dihydro-2H-2,6-methanobenzo[g][1,3,5]oxadiazocin-3(4H)-yl)benzamide] the value was > 10 µM.
Still for that read-out and setting: for `CC12CC(NC(=O)N1c1cccc(C(=O)N3CCc4cc(F)ccc4C3)c1)c1cc(-c3ccoc3)ccc1O2` (centres unmarked) [Compound 28b, 3-(3-(6-Fluoro-1,2,3,4-tetrahydroisoquinoline-2-carbonyl)phenyl)-8-(furan-3-yl)-2-methyl-5,6-dihydro-2H-2,6-methanobenzo[g][1,3,5]oxadiazocin-4(3H)-one] the value was 1 to 10 µM.
On to `CC12CC(NC(=O)N1c1cccc(C(=O)N3CCc4ccccc4C3)c1)c1c(F)cccc1O2` (centres unmarked) [Compound 25m, 7-Fluoro-2-methyl-3-(3-(1,2,3,4-tetrahydroisoquinoline-2-carbonyl)phenyl)-5,6-dihydro-2H-2,6-methanobenzo[g][1,3,5]oxadiazocin-4(3H)-one], for which the IC50 was 1 to 10 µM.
Same read-out and setting: for `CC12CC(NC(=O)N1c1cccc(C(=O)N3CCc4ccc(C(F)(F)F)cc4C3)c1)c1cc(-c3ccoc3)ccc1O2` (centres unmarked) [Compound 28f, 8-(Furan-3-yl)-2-methyl-3-(3-(7-(trifluoromethyl)-1,2,3,4-tetrahydroisoquinoline-2-carbonyl)phenyl)-5,6-dihydro-2H-2,6-methanobenzo[g][1,3,5]oxadiazocin-4(3H)-one] the value was > 10 µM; for `CC12CC(NC(=O)N1c1cccc(C(=O)N3CCc4ccccc4C3)c1)c1cc(-c3cccs3)ccc1O2` (centres unmarked) [Compound 26c, 2-Methyl-3-(3-(1,2,3,4-tetrahydroisoquinoline-2-carbonyl)phenyl)-8-(thiophen-2-yl)-5,6-dihydro-2H-2,6-methanobenzo[g][1,3,5]oxadiazocin-4(3H)-one], > 10 µM; for `CC12CC(NC(=O)N1c1cccc(C(=O)N3CCc4cc(C(F)(F)F)ccc4C3)c1)c1cc(-c3ccoc3)ccc1O2` (centres unmarked) [Compound 28h, 8-(Furan-3-yl)-2-methyl-3-(3-(6-(trifluoromethyl)-1,2,3,4-tetrahydroisoquinoline-2-carbonyl)phenyl)-5,6-dihydro-2H-2,6-methanobenzo[g][1,3,5]oxadiazocin-4(3H)-one], > 10 µM.
The same measure, in the same setting: next, `CC12CC(NC(=O)N1c1cccc(C(=O)N3CCc4ccccc4C3)c1)c1cccc(Br)c1O2` (centres unmarked) [Compound 25f, 10-Bromo-2-methyl-3-(3-(1,2,3,4-tetrahydroisoquinoline-2-carbonyl)phenyl)-5,6-dihydro-2H-2,6-methanobenzo[g][1,3,5]oxadiazocin-4(3H)-one]: > 10 µM.
On the same count and under the same terms, for `CC12CC(NC(=O)N1c1cccc(C(=O)N3CCc4ccccc4C3)c1)c1cccc(-c3ccoc3)c1O2` (centres unmarked) [Compound 26h, 10-(Furan-3-yl)-2-methyl-3-(3-(1,2,3,4-tetrahydroisoquinoline-2-carbonyl)phenyl)-5,6-dihydro-2H-2,6-methanobenzo[g][1,3,5]oxadiazocin-4(3H)-one] the value was 1 to 10 µM; for `CN1C(=O)N(c2cccc(-c3ccco3)c2)C2(C)CC1c1ccccc1O2` (centres unmarked) [Compound 16, 3-(3-(Furan-2-yl)phenyl)-2,5-dimethyl-5,6-dihydro-2H-2,6-methanobenzo[g][1,3,5]oxadiazocin-4(3H)-one], > 10 µM; for `C[C@]12C[C@H](NC(=O)N1c1cccc(C(=O)NCc3cc(Br)cc(Br)c3)c1)c1ccccc1O2` [Compound 10d, N-(3,5-Dibromobenzyl)-3-((2S,6S)-2-methyl-4-oxo-5,6-dihydro-2H-2,6-methanobenzo[g][1,3,5]oxadiazocin-3(4H)-yl)benzamide], > 10 µM.
Consider `CC12CC(NC(=O)N1c1cccc(C(=O)N3CCc4cccc(C(F)(F)F)c4C3)c1)c1cc(-c3ccoc3)ccc1O2` (centres unmarked) [Compound 28g, 8-(Furan-3-yl)-2-methyl-3-(3-(8-(trifluoromethyl)-1,2,3,4-tetrahydroisoquinoline-2-carbonyl)phenyl)-5,6-dihydro-2H-2,6-methanobenzo[g][1,3,5]oxadiazocin-4(3H)-one], for which the IC50 is > 10 µM.
On the same count and under the same terms, next, `CC12CC(NC(=O)N1c1cccc(C(=O)O)c1)c1ccccc1O2` (centres unmarked) [Compound 7, 3-(2-Methyl-4-oxo-5,6-dihydro-2H-2,6-methanobenzo[g][1,3,5]oxadiazocin-3(4H)-yl)benzoic acid]: > 10 µM; `CC12CC(NC(=O)N1c1cccc(C(=O)N3CCc4cc(C(F)(F)F)ccc4C3)c1)c1cc(Br)ccc1O2` (centres unmarked) [Compound 27h, 8-Bromo-2-methyl-3-(3-(6-(trifluoromethyl)-1,2,3,4-tetrahydroisoquinoline-2-carbonyl)phenyl)-5,6-dihydro-2H-2,6-methanobenzo[g][1,3,5]oxadiazocin-4(3H)-one]: 1 to 10 µM.
Take `CC12CC(NC(=O)N1c1cccc(C(=O)N3CCc4ccccc4C3)c1)c1ccc(C(F)(F)F)cc1O2` (centres unmarked) [Compound 25i, 2-Methyl-3-(3-(1,2,3,4-tetrahydroisoquinoline-2-carbonyl)phenyl)-9-(trifluoromethyl)-5,6-dihydro-2H-2,6-methanobenzo[g][1,3,5]oxadiazocin-4(3H)-one]: the IC50 fell in the range of 1 to 10 µM.
The same measure, in the same setting: next, `CC12CC(NC(=O)N1c1cccc(C(=O)N3CCc4ccccc4C3)c1)c1cc(Br)ccc1O2` (centres unmarked) [Compound 25a, 8-Bromo-2-methyl-3-(3-(1,2,3,4-tetrahydroisoquinoline-2-carbonyl)phenyl)-5,6-dihydro-2H-2,6-methanobenzo[g][1,3,5]oxadiazocin-4(3H)-one]: > 10 µM.
The same measure, in the same setting: next, `CC12CC(NC(=O)N1c1cccc(C(=O)N3CCc4ccccc4C3(C)C)c1)c1cc(-c3ccoc3)ccc1O2` (centres unmarked) [Compound 28j, 3-(3-(1,1-Dimethyl-1,2,3,4-tetrahydroisoquinoline-2-carbonyl)phenyl)-8-(furan-3-yl)-2-methyl-5,6-dihydro-2H-2,6-methanobenzo[g][1,3,5]oxadiazocin-4(3H)-one]: > 10 µM; `CC12CC(NC(=O)N1c1cccc(C(=O)N3CCc4ccccc4C3)c1)c1cc(N3CCOCC3)ccc1O2` (centres unmarked) [Compound 26f, 2-Methyl-8-morpholino-3-(3-(1,2,3,4-tetrahydroisoquinoline-2-carbonyl)phenyl)-5,6-dihydro-2H-2,6-methanobenzo[g][1,3,5]oxadiazocin-4(3H)-one]: 1 to 10 µM; `COc1ccc2c(c1)OC1(C)CC2NC(=O)N1c1cccc(C(=O)N2CCc3ccccc3C2)c1` (centres unmarked) [Compound 25l, 9-Methoxy-2-methyl-3-(3-(1,2,3,4-tetrahydroisoquinoline-2-carbonyl)phenyl)-5,6-dihydro-2H-2,6-methanobenzo[g][1,3,5]oxadiazocin-4(3H)-one]: > 10 µM.
